Results on eight compounds are retold here after US9133183B2, “Imidazolidinones and analogs exhibiting anti-cancer and anti-proliferative activities” (Deciphera Pharmaceuticals, LLC, priority 2013, dated 2015).

For assay [1], the target named is unphosphorylated c-FMS kinase (uFMS, Seq. ID no. 1) (Homo sapiens (Human), UniProt P07333). As to the kind of experiment: uFMS kinase assay (ADP production coupled to pyruvate kinase/lactate dehydrogenase). The assay is classed as biochemical. As to conditions: enzymatic assay, ATP 500 μM. In outline:
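Unphosphorylated FMS (10 nM) with polyE4Y 1 mg/mL and 500 μM ATP in 90 mM Tris pH 7.5, 10 mM MgCl2, 0.2% octyl-glucoside, 1% DMSO. ADP formation was coupled via pyruvate kinase/LDH to NADH oxidation, followed at A340 for 4 h at 30° C.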

Assay [2] concerns the target unphosphorylated PDGFRβ kinase (uPDGFRβ, Seq. ID No. 3) (Homo sapiens (Human), UniProt P09619). The assay is described as follows: Unphosphorylated PDGFRβ kinase assay (coupled pyruvate kinase/lactate dehydrogenase). The settings on record: enzymatic assay, ATP 500 μM. It counts as biochemical. The essentials: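 Construct residues 557-1106, unphosphorylated, 15.7 nM, with poly E4Y 2.5 mg/mL and 500 μM ATP, Tris pH 7.5, 1% DMSO, 30 °C. ADP coupled to NADH oxidation via PK/LDH, A340 followed 4 h; rate from 1.5-2.5 h versus no-compound control, IC50 from percent-inhibition series.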

The test system of the next assay is M-NFS-60 cells. The assay is described as follows: M-NFS-60 cell proliferation assay (resazurin). The assay is classed as cell-based. As to conditions: 67 h incubation. The essentials: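 Cells kept in medium containing 20 ng/mL mouse recombinant M-CSF. Fluorescence was read at ex 540/em 600 nm, and IC50 was fitted from percent inhibition across a range of inhibitor concentrations.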
(Alamar Blue is a resazurin reagent that responds to reducing activity.)

Another assay concerns osteoclast precursors. The assay is described as follows: Osteoclast tartrate-resistant acid phosphatase assay. It counts as cell-based. The settings on record: Osteoclast, 7-14 days, RANKL and M-CSF.
Assay [3] concerns the target c-FMS kinase in THP-1 cells (Homo sapiens (Human), UniProt P07333). The assay is described as follows: Phospho-FMS ELISA assay in THP-1 cells. The assay is classed as cell-based. The procedure: THP-1 cells (catalog #TIB-202) were obtained from the ATCC. Briefly, cells were grown in RPMI 1640 supplemented with 10% characterized fetal bovine serum, 1% sodium pyruvate, 1% Penicillin-Streptomycin-Glutamine (PSG) and 55 uM 2-mercaptoethanol (Invitrogen, Carlsbad, Calif.) at 37 degrees Celsius, 5% CO2, 95% humidity. Cells were allowed to expand until reaching 70-95% confluency at which point they were subcultured or harvested for assay use.
A serial dilution of test compound was diluted 1:100 in assay medium (RPMI 1640 supplemented with 10% characterized fetal bovine serum) in a 96 well black clear bottom plate (Corning, Corning, N.Y.). In a separate 96 well black clear bottom plate, one hundred and fifty thousand THP-1 cells were added per well in 100 μL in assay medium. Fifty microliters of diluted compound was then added to the cells. Plates were incubated for 4 hours at 37 degrees Celsius, 5% CO2, 95% humidity. At the end of the incubation period, cells were stimulated with 50 μL of a 100 nM solution of recombinant human M-CSF (catalog #216-MC, R & D Systems, Minneapolis, Minn.) in assay medium and the plate was incubated for 5 minutes at 37 degrees Celsius, 5% CO2, 95% humidity. Lysates were prepared and used to perform the phospho-FMS ELISA as described by the manufacturer (catalog #DYC3268, R & D Systems, Minneapolis, Minn.). GraphPad Prism was used to calculate IC50 values obtained from data generated from the ELISA assay.

The target in assay [4] is unphosphorylated c-KIT kinase (uKIT, Seq. ID no. 2) (Homo sapiens (Human), UniProt P10721). As to the kind of experiment: uKit kinase assay (coupled pyruvate kinase/lactate dehydrogenase). The settings on record: enzymatic assay, ATP 2000 μM. It counts as biochemical. The essentials:
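The read-out was a continuous PK/LDH-coupled decrease in NADH absorbance at 340 nm, monitored at 30 °C over 4 h. IC50 came from % inhibition based on rates at 3–4 h. The GST-tagged unphosphorylated KIT (12 nM) was used with polyE4Y substrate, 2000 μM ATP and 10 mM Mg2+ at pH 7.5, with serially diluted compound.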

Where [5] appears, read: 4 h compound, M-CSF stimulation 5 min, read-out: pFMS inhibition in THP-1 cells.

pIC50: −log10 of the molar value. Where two headings read alike, the source gives them in different places. Where only a bound is given, the exact number is not on record here.

unphosphorylated c-FMS kinase (uFMS, Seq. ID no. 1), sequence (P07333 538-972): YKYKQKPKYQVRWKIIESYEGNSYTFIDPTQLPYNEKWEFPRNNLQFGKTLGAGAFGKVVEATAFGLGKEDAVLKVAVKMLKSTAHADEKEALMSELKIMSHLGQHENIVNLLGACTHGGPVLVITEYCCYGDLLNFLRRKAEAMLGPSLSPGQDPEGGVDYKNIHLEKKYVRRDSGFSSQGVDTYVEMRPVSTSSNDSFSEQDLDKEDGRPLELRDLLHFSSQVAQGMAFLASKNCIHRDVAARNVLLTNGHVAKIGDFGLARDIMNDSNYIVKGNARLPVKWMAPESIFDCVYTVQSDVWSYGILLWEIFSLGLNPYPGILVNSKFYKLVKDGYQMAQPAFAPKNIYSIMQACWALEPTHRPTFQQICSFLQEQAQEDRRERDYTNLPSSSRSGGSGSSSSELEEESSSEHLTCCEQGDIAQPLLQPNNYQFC
c-FMS kinase in THP-1 cells, sequence (P07333 20-972): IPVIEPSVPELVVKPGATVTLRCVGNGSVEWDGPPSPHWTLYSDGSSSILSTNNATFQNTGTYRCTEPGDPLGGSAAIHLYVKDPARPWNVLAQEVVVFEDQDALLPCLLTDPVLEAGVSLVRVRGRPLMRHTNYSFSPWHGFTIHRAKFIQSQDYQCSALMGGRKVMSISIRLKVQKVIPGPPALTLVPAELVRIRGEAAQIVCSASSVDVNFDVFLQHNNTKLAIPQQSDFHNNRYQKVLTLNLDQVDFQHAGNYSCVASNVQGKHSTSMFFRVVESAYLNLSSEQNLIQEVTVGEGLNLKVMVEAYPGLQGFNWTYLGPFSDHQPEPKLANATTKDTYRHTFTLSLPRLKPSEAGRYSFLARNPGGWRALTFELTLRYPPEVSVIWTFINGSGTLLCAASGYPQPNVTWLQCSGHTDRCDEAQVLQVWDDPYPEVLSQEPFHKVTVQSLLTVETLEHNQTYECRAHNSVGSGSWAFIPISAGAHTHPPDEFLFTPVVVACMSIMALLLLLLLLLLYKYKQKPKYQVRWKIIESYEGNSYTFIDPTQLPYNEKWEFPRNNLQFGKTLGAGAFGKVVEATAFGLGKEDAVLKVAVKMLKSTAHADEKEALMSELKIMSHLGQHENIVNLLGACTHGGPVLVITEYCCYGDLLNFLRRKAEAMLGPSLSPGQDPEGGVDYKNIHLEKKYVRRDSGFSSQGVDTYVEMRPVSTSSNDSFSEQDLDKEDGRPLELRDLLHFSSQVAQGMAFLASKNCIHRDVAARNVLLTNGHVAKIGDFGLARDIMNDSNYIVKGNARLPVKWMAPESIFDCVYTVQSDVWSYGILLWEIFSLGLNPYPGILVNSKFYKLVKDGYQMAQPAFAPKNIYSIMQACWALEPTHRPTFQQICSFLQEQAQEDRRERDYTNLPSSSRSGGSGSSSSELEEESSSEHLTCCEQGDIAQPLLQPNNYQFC
unphosphorylated PDGFRβ kinase (uPDGFRβ, Seq. ID No. 3), sequence (P09619 557-1106): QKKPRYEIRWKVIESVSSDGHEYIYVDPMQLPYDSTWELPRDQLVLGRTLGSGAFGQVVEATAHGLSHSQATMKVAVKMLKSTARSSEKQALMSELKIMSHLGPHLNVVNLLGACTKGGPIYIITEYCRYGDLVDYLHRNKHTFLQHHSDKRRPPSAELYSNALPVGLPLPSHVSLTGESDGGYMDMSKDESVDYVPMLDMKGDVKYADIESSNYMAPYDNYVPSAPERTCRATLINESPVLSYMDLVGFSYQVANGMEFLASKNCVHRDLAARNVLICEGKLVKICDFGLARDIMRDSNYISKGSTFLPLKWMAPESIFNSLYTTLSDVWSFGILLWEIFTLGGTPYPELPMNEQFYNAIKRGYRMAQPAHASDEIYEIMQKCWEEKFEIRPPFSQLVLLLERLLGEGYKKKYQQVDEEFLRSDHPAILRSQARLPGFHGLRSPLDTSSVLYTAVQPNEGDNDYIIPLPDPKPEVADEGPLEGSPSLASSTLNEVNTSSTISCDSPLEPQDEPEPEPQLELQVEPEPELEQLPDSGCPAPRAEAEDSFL
unphosphorylated c-KIT kinase (uKIT, Seq. ID no. 2), sequence (P10721 other isoform, or with tags, fused parts or gaps): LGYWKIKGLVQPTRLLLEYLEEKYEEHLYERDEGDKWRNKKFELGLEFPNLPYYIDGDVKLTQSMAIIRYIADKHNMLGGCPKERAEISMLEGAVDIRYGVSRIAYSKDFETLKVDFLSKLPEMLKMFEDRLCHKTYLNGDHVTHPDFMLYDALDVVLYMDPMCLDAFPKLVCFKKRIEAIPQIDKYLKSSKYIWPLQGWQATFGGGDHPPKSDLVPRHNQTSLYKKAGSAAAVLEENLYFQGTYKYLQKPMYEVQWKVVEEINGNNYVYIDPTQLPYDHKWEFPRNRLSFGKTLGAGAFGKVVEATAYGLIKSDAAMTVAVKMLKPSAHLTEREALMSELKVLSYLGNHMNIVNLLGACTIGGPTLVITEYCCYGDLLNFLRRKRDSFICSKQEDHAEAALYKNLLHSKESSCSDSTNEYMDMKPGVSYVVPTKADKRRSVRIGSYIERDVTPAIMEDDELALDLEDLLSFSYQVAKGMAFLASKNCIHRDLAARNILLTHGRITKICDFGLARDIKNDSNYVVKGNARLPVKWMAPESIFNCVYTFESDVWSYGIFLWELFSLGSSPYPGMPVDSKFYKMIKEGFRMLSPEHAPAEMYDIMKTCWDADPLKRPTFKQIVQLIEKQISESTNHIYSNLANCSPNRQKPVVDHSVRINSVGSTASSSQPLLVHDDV

Take `O=C(Nc1ccc(Oc2ccnc(-c3cn[nH]c3)c2)cn1)N1CCN(C2CCOCC2)C1=O` [Example 5, N-(5-((2-(1H-pyrazol-4-yl)pyridin-4-yl)oxy)pyridin-2-yl)-2-oxo-3-(tetrahydro-2H-pyran-4-yl)imidazolidine-1-carboxamide]: the pIC50 in assay [1] (uFMS) is 7.00 to 8.00; in assay [2], 6.00 to 7.00; in the assay with M-NFS-60 cells, 7.00 to 8.00; with osteoclast precursors, 7.00 to 8.00; in assay [3] it was 6.00 to 7.00.

Take `Cn1cc(-c2cc(Oc3ccc(NC(=O)N4CCN(C5CCOCC5)C4=O)nc3)ncn2)cn1` [Example 8, N-(5-((6-(1-methyl-1H-pyrazol-4-yl)pyrimidin-4-yl)oxy)pyridin-2-yl)-2-oxo-3-(tetrahydro-2H-pyran-4-yl)imidazolidine-1-carboxamide]: the pIC50 in assay [1] (read-out: uFMS) was 7.00 to 8.00; in the assay on M-NFS-60 cells, 6.00 to 7.00; in the assay with osteoclast precursors it was 7.00 to 8.00; in assay [3] (setting [5]) it was 7.00 to 8.00.

Take `Cc1nc(NC(=O)N2CCN(C3CCOCC3)C2=O)ccc1Oc1ccnc(-c2cn[nH]c2)c1` [Example 9, N-(5-((2-(1H-pyrazol-4-yl)pyridin-4-yl)oxy)-6-methylpyridin-2-yl)-2-oxo-3-(tetrahydro-2H-pyran-4-yl)imidazolidine-1-carboxamide]: the pIC50 in assay [1] (read-out: uFMS) is 7.00 to 8.00; in the assay with M-NFS-60 cells it was 6.00 to 7.00; with osteoclast precursors, 7.00 to 8.00; in assay [3] (setting [5]), 7.00 to 8.00.

Regarding `Cc1cc(-c2cc(Oc3ccc(NC(=O)N4CCN(C5CCOCC5)C4=O)nc3C)ccn2)on1` [Example 14, N-(6-methyl-5-((2-(3-methylisoxazol-5-yl)pyridin-4-yl)oxy)pyridin-2-yl)-2-oxo-3-(tetrahydro-2H-pyran-4-yl)imidazolidine-1-carboxamide], the pIC50 in assay [1] (read-out: uFMS) is 7.00 to 8.00; in assay [2] it was < 6.00; in the assay on M-NFS-60 cells, 6.00 to 7.00; in the assay on osteoclast precursors, 7.00 to 8.00; in assay [3] (setting [5]) it was 6.00 to 7.00.

Turning to `Cn1cc(-c2cc(Oc3cc(F)c(NC(=O)N4CCN(C5CCOCC5)C4=O)cc3Cl)ccn2)cn1` [Example 92, N-(5-chloro-2-fluoro-4-((2-(1-methyl-1H-pyrazol-4-yl)pyridin-4-yl)oxy)phenyl)-2-oxo-3-(tetrahydro-2H-pyran-4-yl)imidazolidine-1-carboxamide], the pIC50 in assay [1] (read-out: uFMS) is > 8.00; in assay [4], 7.00 to 8.00; in the assay on M-NFS-60 cells, 7.00 to 8.00; in the assay with osteoclast precursors, 7.00 to 8.00; in assay [3] (setting [5]), 7.00 to 8.00.

Regarding `O=C(Nc1cc(Cl)c(Oc2ccnc(-c3cn[nH]c3)c2)cc1F)N1CCN(C2CCOCC2)C1=O` [Example 94, N-(4-((2-(1H-pyrazol-4-yl)pyridin-4-yl)oxy)-5-chloro-2-fluorophenyl)-2-oxo-3-(tetrahydro-2H-pyran-4-yl)imidazolidine-1-carboxamide], the pIC50 in assay [1] (read-out: uFMS) is 7.00 to 8.00; in the assay with M-NFS-60 cells, 6.00 to 7.00; in the assay with osteoclast precursors, 6.00 to 7.00; in assay [3] (setting [5]), 7.00 to 8.00.

Consider `Cn1cc(-c2cc(Oc3ccc(NC(=O)N4CCN(C5CCOCC5)C4=O)cc3Cl)ccn2)cn1` [Example 96, N-(3-chloro-4-((2-(1-methyl-1H-pyrazol-4-yl)pyridin-4-yl)oxy)phenyl)-2-oxo-3-(tetrahydro-2H-pyran-4-yl)imidazolidine-1-carboxamide], for which the pIC50 was 7.00 to 8.00 in assay [1] (read-out: uFMS), < 6.00 with M-NFS-60 cells, 6.00 to 7.00 with osteoclast precursors and 7.00 to 8.00 in assay [3] (setting [5]).

Turning to `CC(=O)Nc1cc(Oc2cc(F)c(NC(=O)N3CCN(C4CCOCC4)C3=O)cc2Cl)ccn1` [Example 97, N-(4-((2-acetamidopyridin-4-yl)oxy)-5-chloro-2-fluorophenyl)-2-oxo-3-(tetrahydro-2H-pyran-4-yl)imidazolidine-1-carboxamide], the pIC50 was 7.00 to 8.00 in assay [1] (read-out: uFMS), 6.00 to 7.00 with M-NFS-60 cells, 6.00 to 7.00 in the assay with osteoclast precursors and 6.00 to 7.00 in assay [3] (setting [5]).
